Source: patent US4894370A, “Compositions having fermentation analogs of virginiamycin M1 as active ingredient” (Merck & Co., Inc., priority 1988, dated 1990)

What was measured:
gram-positive bacteria = conditions: cited from earlier work
Pancreatic CCK Receptor = molecular target: T1, Pancreatic CCK Receptor (Rattus norvegicus, UniProt P30551); experiment: Pancreatic Cholecystokinin Receptor Binding Assay (125I-CCK-8); conditions: added as protease inhibitors
T1 construct: Pancreatic receptor membranes were prepared by homogenzing a gram of fresh rat pancreas tissue; from tissue; host or cells: rat pancreas membranes
T1 sequence (P30551 1-444): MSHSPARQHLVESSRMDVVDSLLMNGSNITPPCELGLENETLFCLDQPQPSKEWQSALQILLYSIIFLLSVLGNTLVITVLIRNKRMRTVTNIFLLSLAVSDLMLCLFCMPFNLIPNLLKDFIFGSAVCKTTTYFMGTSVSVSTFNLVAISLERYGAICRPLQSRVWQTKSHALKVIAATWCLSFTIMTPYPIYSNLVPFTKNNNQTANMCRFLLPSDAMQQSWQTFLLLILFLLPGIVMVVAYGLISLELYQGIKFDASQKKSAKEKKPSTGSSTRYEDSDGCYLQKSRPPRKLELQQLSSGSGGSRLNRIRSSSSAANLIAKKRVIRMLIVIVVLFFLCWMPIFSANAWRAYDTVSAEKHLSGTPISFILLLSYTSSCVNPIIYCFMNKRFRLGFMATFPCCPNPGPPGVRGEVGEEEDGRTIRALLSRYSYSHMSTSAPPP
Experimental: Radiolabeled CCK-8 was purchased from New England Nullear as ^125 I-CCK-8. Receptor binding was performed according to Innis and Snyder Proc. Natl. Acad. Sci., 77, 6917 (1980), with the minor modification of adding the additional protease inhibitors, phenylmethane sulfonyl fluoride (PMSF) and o-phenanthroline, which have no effect on the ^125 I-CCK receptor binding assay. All assays were performed in triplicate. Pancreatic receptor membranes were prepared by homogenzing a gram of fresh rat pancreas tissue in 30 ml TRIS-HCl (50 mM), pH 7.7 using a Brinkman polytron PT10 (Brinkman). The homogenate was washed twice and collected by centrifugation at 48,000×g at 4° C. for 10 minutes. The membranes were resuspended in assay buffer consisting of 5 mM dithiothieitol, 0.1 mM bacitiacin, 5 mM MgCl2 ·H2 O, 0.2% heat denatured BSA, 1.2 mM PMSF and 0.5 mM O-phenanthroline at a concentration of 100 ml per gram of pancreas. […] The reaction mixtures were mixed briefly and placed in a 37° C. water bath with gentle shaking for 30 minutes. […] The filters were washed with 3×4 ml of the same buffer and the radioactivity associated with the filters was counted in a Beckman Gamma 5500 counter. […] The dried samples were then brought up in methanol/H2 O (1:1) and ready for assay.

[1] = vs CCK-33; cited from earlier work
gastric acid secretion = conditions: cited from earlier work

CC1=C\[C@@H](O)CC(=O)Cc2nc(co2)C(=O)N2CCC=C2C(=O)O[C@H](C(C)C)[C@H](C)/C=C/C(=O)NC\C=C\1 [Virginiamycin M1]
antibacterial specificity (gram-positive bacteria): generally specific for gram-positive bacteria

c1cnc2c(c1)ccc1cccnc12 [o-phenanthroline]
effect on the 125I-CCK receptor binding assay (Pancreatic CCK Receptor): no effect

O=S(=O)(F)Cc1ccccc1 [phenylmethane sulfonyl fluoride (PMSF), phenylmethane sulfonyl fluoride]
effect on the 125I-CCK receptor binding assay (Pancreatic CCK Receptor): no effect

C-terminal octapeptide: C-terminal octapeptide of CCK
efficacy relative to CCK-33 [1]: same efficacy

Gastrin-17
potency for stimulating gastric acid secretion relative to Gastrin-13 (gastric acid secretion; vs Gastrin-13): 2.5 times more potent
potency for stimulating gastric acid secretion relative to Gastrin-34 (gastric acid secretion; vs Gastrin-34): 5 times more potent
